Results taken from paper PMC8151276, “An Integrated Approach toward NanoBRET Tracers for Analysis of GPCR Ligand Engagement” (Molecules, 2021).

Key:
Assay type in all cases: binding
PTGER1 = target: T1, PTGER1 (Homo sapiens, UniProt P34995); assay: NanoBRET screen HiBiT-PTGER1 in HEK293
T1 construct: purchased Promega (in-house HiBiT-GPCR construct library, NanoBRET)
T1 sequence (P34995 1-402): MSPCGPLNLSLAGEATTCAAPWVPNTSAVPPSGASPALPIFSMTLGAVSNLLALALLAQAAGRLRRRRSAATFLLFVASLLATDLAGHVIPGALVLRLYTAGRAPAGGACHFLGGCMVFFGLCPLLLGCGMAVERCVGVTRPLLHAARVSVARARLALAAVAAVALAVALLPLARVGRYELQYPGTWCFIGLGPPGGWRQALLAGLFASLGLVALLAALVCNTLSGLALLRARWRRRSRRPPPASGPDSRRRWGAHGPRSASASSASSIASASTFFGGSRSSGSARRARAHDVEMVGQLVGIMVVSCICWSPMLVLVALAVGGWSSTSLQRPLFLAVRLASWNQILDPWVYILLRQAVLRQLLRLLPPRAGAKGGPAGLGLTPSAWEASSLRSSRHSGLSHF
Description: (§1) Each tracer candidate was screened across the entire library of HiBiT-GPCR constructs using NanoBRET as the detection modality. As depicted in Figure 4A, the specificity of interactions was evaluated through decrease in BRET due to competitive displacement of a bound tracer by excess parental compound. Each tracer was analyzed for binding to each HiBiT-GPCR fusion in the absence and in the presence of competing parental compound. Briefly, HEK293 cells were transfected with HiBiT-GPCR constructs diluted into promoterless DNA to reduce expression and maximize translocation to the cell surface. Each tracer candidate was then screened at concentrations of 1 μM and 0.1 μM across cells expressing these fusions. Cells were treated for 1.5 h with tracer either alone or in the presence of 20 μM competing parental compound (i.e., control). BRET was measured upon addition of purified LgBiT and subsequent complementation with HiBiT genetically fused to a GPCR. The specificity of interactions was assessed through a decrease in BRET signal due to competitive displacement of the bound tracer. To further gauge the robustness of these interactions, the fold response over the control (i.e., BRETtracer/BRETcontrol) was calculated. We chose a 1.5-fold response, which translates to ≥7-fold signal over noise as the minimal threshold required to score an interaction as positive. […]. Below we highlight the screening results obtained for our exemplary fluorescent tracers based on Clozapine, Amitriptyline and AZD1283.
(§2) HiBiT-GPCR DNA constructs were diluted in 10 mM Tris pH 8 to a final concentration of 0.01 μg/μL, arrayed in 96-well plates and stored at −20 °C. For transfection, HEK293 cells were suspended in Opti-MEM (without phenol red) supplemented with 2% fetal bovine serum (Seradigm) and 100 units/mL penicillin–streptomycin (Gibco) at a final concentration of 220,000 cells/mL and dispensed into white 96-well plates at 90 μL/well. Subsequent transfections and screens were carried using an Agilent Bravo Automated Liquid Handling Platform. First, the 96-well HiBiT DNA arrays were diluted 25-fold in Opti-MEM (without serum or phenol red) to a final concentration of 0.0004 μg/μL and 20 μL of the diluted DNAs were transferred into new 96-well plates. Next, promoterless carrier DNA (1 μg/μL) was diluted 25-fold (0.04 μg/μL) and then dispensed into the diluted arrays at 20 μL/well. Following brief mixing, Viafect transfection reagent (Promega) diluted 16-fold into Opti-MEM was dispensed into the plates at 40 μL/well. After mixing by pipetting, plates were incubated for 10 min on the pipetting station deck. The DNA-transfection reagent complexes were then added to plates containing cells. To facilitate the screen, 10 μL of DNA-transfection reagent complexes were added in duplicates to the top 4 and bottom 4 rows, resulting in two identical 48-well arrays per plate. Plates with transfected cells were incubated for 18–20 h at 37 °C/5% CO2. A screen of each tracer across the entire library using two different concentrations requires duplicate plates of transfected cells. Depending on the number of tracers being screened, transfections can be scaled up using the same ratios. The next day, for each tracer, four 20× screening solutions in tracer dilution buffer (Promega) were prepared: two duplicates at final concentration of 20 μM and two duplicates at a final concentration of 2 μM. A competing unmodified compound was added to one of each duplicate at a final concentration of 400 μM. The four resulting solutions were diluted 4-fold in Opti-MEM without serum or phenol red to generate 5× solutions (5 µM and 0.5 µM tracer +/− 100 μM competing compound). To screen the library, a BioTek MultiFlo FX liquid dispenser was used to dispense 22.5 µL of tracer solution to the top 4 rows and 22.5 µL tracer + competing compound solution to the 4 bottom rows. Plates were briefly mixed on an orbital shaker and incubated for 1.5 h at room temperature. […]

BDKRB1 = target: T2, BDKRB1 (Homo sapiens, UniProt P46663); assay: NanoBRET screen HiBiT-BDKRB1 in HEK293
T2 construct: purchased Promega (in-house HiBiT-GPCR construct library, NanoBRET)
T2 sequence (P46663 1-353): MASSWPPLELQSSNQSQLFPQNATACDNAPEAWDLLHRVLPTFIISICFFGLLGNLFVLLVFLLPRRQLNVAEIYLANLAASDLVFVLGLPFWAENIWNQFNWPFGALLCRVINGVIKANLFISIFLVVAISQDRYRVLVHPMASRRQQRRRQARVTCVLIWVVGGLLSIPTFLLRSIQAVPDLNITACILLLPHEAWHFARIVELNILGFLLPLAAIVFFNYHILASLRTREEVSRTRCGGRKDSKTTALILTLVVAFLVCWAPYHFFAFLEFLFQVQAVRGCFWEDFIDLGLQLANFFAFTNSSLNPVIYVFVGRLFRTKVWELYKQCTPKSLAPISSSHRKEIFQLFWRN
Description: as §1, §2

NTSR1 = target: T3, NTSR1 (Homo sapiens, UniProt P30989); assay: NanoBRET screen HiBiT-NTSR1 in HEK293
T3 construct: purchased Promega (in-house HiBiT-GPCR construct library, NanoBRET)
Description: as §1, §2

CX3CR1 = target: T4, CX3CR1 (Homo sapiens, UniProt P49238); assay: NanoBRET screen HiBiT-CX3CR1 in HEK293
T4 construct: purchased Promega (in-house HiBiT-GPCR construct library, NanoBRET)
T4 sequence (P49238 1-355): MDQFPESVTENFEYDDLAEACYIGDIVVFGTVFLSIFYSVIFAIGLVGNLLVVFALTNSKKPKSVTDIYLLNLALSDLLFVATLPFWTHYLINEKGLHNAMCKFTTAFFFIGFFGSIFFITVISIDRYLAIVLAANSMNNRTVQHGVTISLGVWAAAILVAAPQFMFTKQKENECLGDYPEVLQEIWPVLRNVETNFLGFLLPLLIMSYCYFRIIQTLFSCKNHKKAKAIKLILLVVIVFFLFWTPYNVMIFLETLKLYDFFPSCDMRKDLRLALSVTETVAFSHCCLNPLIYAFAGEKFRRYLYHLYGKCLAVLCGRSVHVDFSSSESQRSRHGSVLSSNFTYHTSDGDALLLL
Description: as §1, §2

T3 sequence (P30989 whole entry): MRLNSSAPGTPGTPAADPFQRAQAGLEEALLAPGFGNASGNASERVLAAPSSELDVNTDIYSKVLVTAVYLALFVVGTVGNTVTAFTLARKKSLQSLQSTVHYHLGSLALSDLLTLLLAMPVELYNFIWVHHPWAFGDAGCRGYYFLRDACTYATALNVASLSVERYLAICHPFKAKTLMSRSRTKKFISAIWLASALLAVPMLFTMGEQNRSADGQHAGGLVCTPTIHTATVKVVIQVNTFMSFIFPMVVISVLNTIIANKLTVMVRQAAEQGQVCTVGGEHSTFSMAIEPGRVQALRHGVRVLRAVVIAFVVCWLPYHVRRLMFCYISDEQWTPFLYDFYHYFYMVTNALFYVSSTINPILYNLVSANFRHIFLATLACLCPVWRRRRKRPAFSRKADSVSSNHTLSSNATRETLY

Structure (SMILES) | NanoBRET Fold Response (PTGER1; PTGER1, 0.1μM tracer) | NanoBRET Fold Response (PTGER1; PTGER1, 1μM tracer) | NanoBRET Fold Response (BDKRB1; BDKRB1, 0.1μM tracer) | NanoBRET Fold Response (BDKRB1; BDKRB1, 1μM tracer) | NanoBRET Fold Response (NTSR1; NTSR1, 0.1μM tracer) | NanoBRET Fold Response (NTSR1; NTSR1, 1μM tracer) | NanoBRET Fold Response (CX3CR1; CX3CR1, 0.1μM tracer) | NanoBRET Fold Response (PTGER1; PTGER1, tracer 0.1μM) | NanoBRET Fold Response (PTGER1; PTGER1, tracer 1μM) | NanoBRET Fold Response (BDKRB1; BDKRB1, tracer 0.1μM) | NanoBRET Fold Response (BDKRB1; BDKRB1, tracer 1μM) | NanoBRET Fold Response (NTSR1; NTSR1, tracer 0.1μM) | NanoBRET Fold Response (NTSR1; NTSR1, tracer 1μM) | NanoBRET Fold Response (CX3CR1; CX3CR1, tracer 0.1μM) | NanoBRET Fold Response (CX3CR1; CX3CR1, tracer 1μM) | other results
CN1CCN(C2=Nc3cc(Cl)ccc3N(CC(=O)NCCOCCOCCOCCOCCNC(=O)CCc3ccc4n3[B-](F)(F)[N+]3=C(c5ccc[nH]5)C=CC3=C4)c3ccccc32)CC1 [Clozapine-c-2-NB590] | 1.00 | 0.92 | 1.06 | 1.07 | 1.02 | 1.01 | 0.95 |  |  |  |  |  |  |  |  | NanoBRET Fold Response (CX3CR1; CX3CR1, 1μM tracer): 0.92
COc1ccc2[nH]c(-c3ccc(CNC(=O)CCOCCOCCOCCOCCNC(=O)CCc4ccc5n4[B-](F)(F)[N+]4=C(c6ccc[nH]6)C=CC4=C5)cc3)c(CCNC(C)=O)c2n1 [AzomelatoninICO9-2-NB590] |  |  |  |  |  |  |  |  |  |  |  |  |  |  |  | NanoBRET Fold Response (PTGER1; 0.1μM tracer): 0.77; NanoBRET Fold Response (PTGER1; 1μM tracer): 0.95; NanoBRET Fold Response (BDKRB1; 0.1μM tracer): 1.31; NanoBRET Fold Response (BDKRB1; 1μM tracer): 1.20; NanoBRET Fold Response (NTSR1; 0.1μM tracer): 0.90; NanoBRET Fold Response (NTSR1; 1μM tracer): 0.78; NanoBRET Fold Response (CX3CR1; 0.1μM tracer): 1.07; NanoBRET Fold Response (CX3CR1; 1μM tracer): 1.19
O=C(CCOCCOCCOCCOCCNC(=O)CCc1ccc2n1[B-](F)(F)[N+]1=C(c3ccc[nH]3)C=CC1=C2)NCCCN1CCN(C2=Nc3cc(Cl)ccc3Nc3ccccc32)CC1 [Clozapine-a-2-NB590] | 1.03 | 1.02 | 1.02 | 1.37 | 0.97 | 1.00 | 1.08 |  |  |  |  |  |  |  |  | NanoBRET Fold Response (CX3CR1; CX3CR1, 1μM tracer): 1.07
CCCn1c(=O)c2[nH]c(-c3ccc(OCC(=O)NCCNC(=O)CCOCCNC(=O)c4ccc(CNC(=O)CCc5ccc6n5[B-](F)(F)[N+]5=C(c7ccc[nH]7)C=CC5=C6)cc4)cc3)nc2n(CCC)c1=O [XAC-3-NB590] |  |  |  |  |  |  |  | 1.06 | 1.16 | 0.91 | 0.94 | 0.98 | 1.02 | 0.87 | 0.83 | 
O=C(CCc1ccc2n1[B-](F)(F)[N+]1=C(c3ccc[nH]3)C=CC1=C2)NCc1ccc(C(=O)NCCOCCOCCNCC(O)COc2cccc3ccccc23)cc1 (stereo not shown) [Propranolol-3-NB590] |  |  |  |  |  |  |  |  |  |  |  |  |  |  |  | NanoBRET Fold Response (PTGER1; PTGER1, 0.1μM): 1.07; NanoBRET Fold Response (PTGER1; PTGER1, 1μM): 1.06; NanoBRET Fold Response (BDKRB1; BDKRB1, 0.1μM): 0.95; NanoBRET Fold Response (BDKRB1; BDKRB1, 1μM): 0.97; NanoBRET Fold Response (NTSR1; NTSR1, 0.1μM): 1.06; NanoBRET Fold Response (NTSR1; NTSR1, 1μM): 1.01; NanoBRET Fold Response (CX3CR1; CX3CR1, 0.1μM): 1.08; NanoBRET Fold Response (CX3CR1; CX3CR1, 1μM): 1.03
O=C(CCc1ccc2n1[B-](F)(F)[N+]1=C(c3ccc[nH]3)C=CC1=C2)NCc1ccc(C(=O)NCCOCCC(=O)N[C@@H]2CC[C@@]3(O)[C@H]4Cc5ccc(O)c6c5[C@@]3(CCN4CC3CC3)[C@H]2O6)cc1 [Naltrexone-3-NB590] |  |  |  |  |  |  |  | 1.01 | 1.02 | 1.18 | 1.03 | 1.07 | 0.93 | 1.32 | 0.81 | 
N#CN=C(NCCCOc1cccc(CN2CCCCC2)c1)NCCNC(=O)CCOCCOCCOCCOCCNC(=O)CCc1ccc2n1[B-](F)(F)[N+]1=C(c3ccc[nH]3)C=CC1=C2 [Aminopotentidine-2-NB590] |  |  |  |  |  |  |  | 0.97 | 0.95 | 1.01 | 1.02 | 1.02 | 1.03 | 1.00 | 1.05 | 
COc1ccc2c(n1)c(CCNC(C)=O)cn2CCNC(=O)CCc1ccc2n1[B-](F)(F)[N+]1=C(c3ccc[nH]3)C=CC1=C2 [Azamelatonin-1-NB590] |  |  |  |  |  |  |  |  |  |  |  |  |  |  |  | NanoBRET Fold Response (PTGER1; 0.1μM tracer): 1.20; NanoBRET Fold Response (PTGER1; 1μM tracer): 0.95; NanoBRET Fold Response (BDKRB1; 0.1μM tracer): 1.39; NanoBRET Fold Response (BDKRB1; 1μM tracer): 0.74; NanoBRET Fold Response (NTSR1; 0.1μM tracer): 1.05; NanoBRET Fold Response (NTSR1; 1μM tracer): 0.99; NanoBRET Fold Response (CX3CR1; 0.1μM tracer): 0.93; NanoBRET Fold Response (CX3CR1; 1μM tracer): 1.05
CC(C)N(CC[C@H](c1ccccc1)c1cc(CCNC(=O)c2ccc(CNC(=O)CCc3ccc4n3[B-](F)(F)[N+]3=C(c5ccc[nH]5)C=CC3=C4)cc2)ccc1O)C(C)C [Tolterodine-BZ-NB590] |  |  |  |  |  |  |  | 1.03 | 1.03 | 1.02 | 0.85 | 1.02 | 1.03 | 0.94 | 0.98 | 
CN1CCN(C2=Nc3cc(Cl)ccc3Nc3ccc(CNC(=O)CCOCCOCCOCCOCCNC(=O)CCc4ccc5n4[B-](F)(F)[N+]4=C(c6ccc[nH]6)C=CC4=C5)cc32)CC1 [Clozapine-b-2-NB590] | 1.01 | 0.97 | 0.99 | 0.92 | 1.00 | 1.01 | 0.98 |  |  |  |  |  |  |  |  | 
